Laboratory results published in ChEMBL document CHEMBL1909592, “Targeting the prostaglandin F2α receptor for preventing preterm labor with azapeptide tocolytics” (J Med Chem, 2011).
Calls of active or inactive are those of the source. The calls are words filed in the database; no cut-off is given here. Square brackets hold non-standard residues; d marks the D form. Peptide text beside a SMILES is read from it. * marks the point of attachment. dCit = NC(=O)NCCC[C@@H](N)C(=O)O; 3Pal = N[C@@H](Cc1cccnc1)C(=O)O; β3hF = N[C@H](CC(=O)O)Cc1ccccc1; PhAc = O=C(Cc1ccccc1)*; azaGly = NNC(=O)O

Columns and labels:
[1] = target: Prostaglandin F2-alpha receptor (Homo sapiens) (UniProt P43088); experiment: Antagonist activity at human FP receptor expressed in HEK293 cells assessed as ERK1/2 activation at 1 uM after 30 mins by Western blot analysis; type: functional, cell-based
Prostaglandin F2-alpha receptor (Homo sapiens), sequence (P43088 whole entry): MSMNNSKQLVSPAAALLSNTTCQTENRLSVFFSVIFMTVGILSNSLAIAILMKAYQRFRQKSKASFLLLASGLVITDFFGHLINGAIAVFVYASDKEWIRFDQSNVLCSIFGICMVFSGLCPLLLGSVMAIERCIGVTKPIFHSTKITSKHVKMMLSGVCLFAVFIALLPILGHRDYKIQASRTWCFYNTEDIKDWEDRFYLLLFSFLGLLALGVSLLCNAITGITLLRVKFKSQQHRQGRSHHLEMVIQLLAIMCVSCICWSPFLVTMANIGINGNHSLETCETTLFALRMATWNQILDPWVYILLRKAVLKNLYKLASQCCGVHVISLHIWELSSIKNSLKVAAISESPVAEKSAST

[2] = target: Prostaglandin F2-alpha receptor (Mus musculus) (UniProt P43117); experiment: Antagonist activity at FP receptor in postpartum mouse myometrial strip assessed as inhibition of PGF-2alpha-induced uterine contractions; type: functional
Prostaglandin F2-alpha receptor (Mus musculus), sequence (P43117 whole entry): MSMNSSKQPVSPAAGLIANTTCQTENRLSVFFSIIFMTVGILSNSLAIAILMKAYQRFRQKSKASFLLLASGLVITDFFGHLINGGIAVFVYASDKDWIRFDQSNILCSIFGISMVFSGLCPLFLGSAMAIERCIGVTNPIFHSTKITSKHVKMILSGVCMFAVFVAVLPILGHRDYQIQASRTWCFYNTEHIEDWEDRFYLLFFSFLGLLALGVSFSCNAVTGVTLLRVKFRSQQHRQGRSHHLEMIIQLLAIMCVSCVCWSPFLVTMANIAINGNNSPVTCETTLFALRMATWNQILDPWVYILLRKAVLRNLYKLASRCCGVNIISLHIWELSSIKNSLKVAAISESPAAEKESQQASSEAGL

[3] = target: Prostaglandin F2-alpha receptor (Homo sapiens) (UniProt P43088); experiment: Antagonist activity at human FP receptor expressed in HEK293 cells assessed as inhibition of cell ruffling at 1 uM after 30 mins by immunofluorescence assay; type: functional, cell-based
[4] = target: Prostaglandin F2-alpha receptor (Homo sapiens) (UniProt P43088); experiment: Antagonist activity at human FP receptor expressed in HEK293 cells assessed as potentiation of PGF-2alpha-induced Galphaq-mediated PKC/ERK1/2 activation at 1 uM after 30 mins by Western blot analysis; type: functional, cell-based
[5] = target: Prostaglandin F2-alpha receptor (Homo sapiens) (UniProt P43088); experiment: Antagonist activity at human FP receptor expressed in HEK293 cells assessed as inhibition of PGF-2alpha-mediated cell ruffling at 1 uM after 30 mins by immunofluorescence assay (reference value: 65.7 +/- 1.6 %); type: functional, cell-based
[6] = target: Prostaglandin F2-alpha receptor (Bos taurus, UniProt P37289); experiment: Antagonist activity at FP receptor in bovine myometrial strip assessed as inhibition of PGF-2alpha-induced contractions; type: functional
Prostaglandin F2-alpha receptor (Bos taurus, UniProt P37289), sequence (P37289 whole entry): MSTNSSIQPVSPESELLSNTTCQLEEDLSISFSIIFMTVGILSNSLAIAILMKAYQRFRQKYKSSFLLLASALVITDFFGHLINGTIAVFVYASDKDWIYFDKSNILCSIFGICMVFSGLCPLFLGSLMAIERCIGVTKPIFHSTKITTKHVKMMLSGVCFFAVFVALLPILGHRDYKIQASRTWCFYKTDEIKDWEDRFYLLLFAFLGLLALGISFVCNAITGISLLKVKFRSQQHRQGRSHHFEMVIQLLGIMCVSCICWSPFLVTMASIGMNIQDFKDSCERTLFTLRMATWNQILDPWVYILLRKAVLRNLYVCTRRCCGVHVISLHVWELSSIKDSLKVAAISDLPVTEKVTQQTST

Mus musculus [7] = organism: Mus musculus; experiment: Inhibition of PGF-2alpha-induced uterine contractions in pregnant mouse assessed as time delay in preterm labor at 0.8 mg/day; type: functional
[8] = target: Prostaglandin F2-alpha receptor (Bos taurus) (UniProt P37289); conditions: 100 uM
Prostaglandin F2-alpha receptor (Bos taurus), sequence (P37289 whole entry): as above
Description: Antagonist activity at FP receptor in bovine myometrial strip assessed as inhibition of PGF-2alpha-induced contractions at 100 uM

[9] = target: Prostaglandin F2-alpha receptor (Ovis aries, UniProt Q28905); experiment: Antagonist activity at FP receptor in sheep myometrial strip assessed as inhibition of PGF-2alpha-induced contractions; type: functional
Prostaglandin F2-alpha receptor (Ovis aries, UniProt Q28905), sequence (Q28905 whole entry): as the sequence (P37289 whole entry) above, with S5N, I7V, E13A, E192Q, D340N counted along it

[10] = target: Prostaglandin F2-alpha receptor (Mus musculus, UniProt P43117); experiment: Antagonist activity at FP receptor in mouse myometrial strip assessed as inhibition of PGF-2alpha-induced contractions; type: functional
Prostaglandin F2-alpha receptor (Mus musculus, UniProt P43117), sequence (P43117 whole entry): as the sequence (P43117 whole entry) above

[11] = target: Prostaglandin F2-alpha receptor (Mus musculus) (UniProt P43117); conditions: 100 uM
Description: Antagonist activity at FP receptor in mouse myometrial strip assessed as inhibition of PGF-2alpha-induced contractions at 100 uM

[12] = target: Prostaglandin F2-alpha receptor (Ovis aries) (UniProt Q28905); conditions: 100 uM
Prostaglandin F2-alpha receptor (Ovis aries), sequence (Q28905 whole entry): as the sequence (P37289 whole entry) above, with S5N, I7V, E13A, E192Q, D340N counted along it
Description: Antagonist activity at FP receptor in sheep myometrial strip assessed as inhibition of PGF-2alpha-induced contractions at 100 uM

[13] = Antagonist activity at FP receptor in pig retina assessed as inhibition of PGF-2alpha induced microvascular contraction at 100 uM; type: functional; conditions: Sus scrofa
[14] = Antagonist activity at FP receptor in pig retina assessed as inhibition of PGF-2alpha induced microvascular contraction; type: functional, tissue-based, Sus scrofa
Mus musculus [15] = experiment: Inhibition of PGF-2alpha-induced uterine contractions in pregnant CD-1 mouse assessed as time delay in preterm labor at 0.1 mg, ip administered as bolus dose immediately followed by 10 mg, sc; type: functional
Mus musculus [16] = experiment: Inhibition of LPS-induced uterine contractions in pregnant CD-1 mouse assessed as time delay in preterm labor at 0.1 mg, ip administered as bolus dose immediately followed by 10 mg, sc; type: functional

Structure (SMILES) | inhibition [2] | Activity [4] | inhibition [5] [%] | further results
O=C(O)C[C@H](Cc1ccccc1)NC(=O)[C@H](Cc1cccnc1)NC(=O)[C@@H]1CCCN1C(=O)N(Cc1ccccc1)NC(=O)Cc1ccccc1 | Active | Active | 37.4 | Activity [1]: inactive; inhibition [3]: inactive
O=C(O)C[C@H](Cc1ccccc1)NC(=O)[C@H](Cc1cccnc1)NC(=O)[C@@H]1CCC[C@@H]2C[C@H](NC(=O)Cc3ccccc3)C(=O)N21 | inactive |  |  | 
CC[C@@H](C)[C@@H](N)C(=O)N[C@H](CC(C)C)C(=O)NCC(=O)N[C@H](Cc1cnc[nH]1)C(=O)N[C@H](CCCNC(N)=O)C(=O)N[C@H](CC(=O)O)C(=O)N[C@H](Cc1ccc(O)cc1)C(=O)N[C@H](CCCCN)C(=O)O (H-[dI][dL]G[dH][dCit][dD][dY][dK]-OH) |  |  |  | IC50 [6]: 13 nM; Time (Mus musculus [7]): 48 h; inhibition [8]: > 85%; IC50 [9]: 13 nM; IC50 [10]: 13 nM; inhibition [11]: > 85%; inhibition [12]: > 85%
O=C(O)C[C@H](Cc1ccccc1)NC(=O)[C@H](Cc1cccnc1)NC(=O)[C@@H]1CCC[C@@H]2CC[C@H](NC(=O)Cc3ccccc3)C(=O)N21 | inactive |  |  | 
C#CCN(NC(=O)Cc1ccccc1)C(=O)N1CCC[C@H]1C(=O)N[C@@H](Cc1cccnc1)C(=O)N[C@H](CC(=O)O)Cc1ccccc1 | Active | Active | 56.7 | Activity [1]: inactive; inhibition [3]: inactive
O=C(O)C[C@H](Cc1ccccc1)NC(=O)[C@H](Cc1cccnc1)NC(=O)[C@@H]1CCCN1C(=O)NNC(=O)Cc1ccccc1 (PhAc-[azaGly]P[3Pal][β3hF]-OH) | Active | Active | 37.5 | Activity [1]: inactive; inhibition [3]: inactive
NC(=O)NCCC[C@@H](NC(=O)[C@H]1CC[C@H]2CC[C@@H](NC(=O)Cc3ccccc3)C(=O)N21)C(=O)N[C@@H](CC(=O)O)Cc1ccccc1 | inactive |  |  | 
CC[C@@H](C)[C@@H](N)C(=O)N[C@H](CC(C)C)C(=O)NCC(=O)N[C@H](Cc1cnc[nH]1)C(=O)N[C@H](CCCNC(=N)N)C(=O)N[C@H](CC(=O)O)C(=O)N[C@H](Cc1ccc(O)cc1)C(=O)N[C@H](CCCCN)C(=O)O (H-[dI][dL]G[dH][dR][dD][dY][dK]-OH) |  |  |  | inhibition at 100 µM [13]: > 80%; IC50 [14]: 340 nM
O=C(O)C[C@H](Cc1ccccc1)NC(=O)[C@H](Cc1cccnc1)NC(=O)[C@@H]1CC[C@@H]2CC[C@H](NC(=O)Cc3ccccc3)C(=O)N21 | Active | Active | 40.3 | Time (Mus musculus [15]): 42 h; Time (Mus musculus [16]): 28 h

Further lines, with some results ahead:

inhibition [2] | Activity [4] | inhibition [5] [%] | Structure (SMILES) | further results
inactive |  |  | NC(=O)NCCC[C@H](NC(=O)[C@H]1CC[C@H]2CC[C@@H](NC(=O)Cc3ccccc3)C(=O)N21)C(=O)N[C@H](CC(=O)O)Cc1ccccc1 | 
inactive |  |  | CN(NC(=O)Cc1ccccc1)C(=O)N1CCC[C@H]1C(=O)N[C@@H](Cc1cccnc1)C(=O)N[C@H](CC(=O)O)Cc1ccccc1 | 
inactive |  |  | C=CCN(NC(=O)Cc1ccccc1)C(=O)N1CCC[C@H]1C(=O)N[C@@H](Cc1cccnc1)C(=O)N[C@H](CC(=O)O)Cc1ccccc1 | 
